Test results from ChEMBL document CHEMBL1123699, “Selective cytotoxicity of a system L specific amino acid nitrogen mustard” (J Med Chem, 1987).

Legend:
[1] = system: CFU-C; assay: Lethal dose was determined for […] activity against […]; format: toxicity, cell-based; details: mouse
[2] = system: L1210; assay: Inhibitory activity against murine leukemia cells (L1210) was determined; format: functional, cell-based, Mus musculus
[3] = system: L1210; assay: Lethal dose was determined for […] activity against murine leukemia cells (L1210); format: toxicity, cell-based; details: mouse
[4] = rat
[5] = Therapeutic index is the ratio of LD90 of CFU-C to LD90 of L1210 cell lines; format: cell-based; details: mouse, CFU-C and L1210 cells
[6] = system: L1210; assay: Inhibitory activity against leucine-preferring transport system (system L) was determined in murine leukemia L1210 cell lines; format: functional, cell-based, Mus musculus

| SMILES | LD90 [1] | Ki [2] | LD90 [3] | half-life [4] | selectivity ratio [5] | Ki [6] |
| --- | --- | --- | --- | --- | --- | --- |
| N[C@@H](Cc1ccc(N(CCCl)CCCl)cc1)C(=O)O [MELPHALAN] | 14 µM | 112 µM | 35 µM | – | – | – |
| NC1(C(=O)O)CCc2ccc(N(CCCl)CCCl)cc2C1 (stereo not given) | 26.5 µM | 0.22 µM | 23.8 µM | 40 min | 0.9 | – |
| NC1(C(=O)O)CCc2ccccc2C1 (stereo not given) | – | – | – | – | – | 5 µM |
| NC1(C(=O)O)CCc2c(cccc2N(CCCl)CCCl)C1 (stereo not given) | – | – | – | – | – | 15.2 µM |
